Calls of active or inactive are those of the source.
Experiments:
HL-60 = assay: Cytotoxicity against human HL-60 cells at 5 ug/mL; assay type: functional, cell-based
L1210 = assay: Cytotoxicity against mouse L1210 cells at 10 ug/mL; assay type: functional, cell-based
Setaria italica = assay: Phytotoxicity against Setaria italica at 50 ug/disk; assay type: functional, organism-based

Measured: Activity

C/C(C=O)=C\Cc1cc(C=O)cc(O)c1O
active: all assays above

Reference: ChEMBL document CHEMBL1144127, “Montadial A, a cytotoxic metabolite from Bondarzewia montana” (J Nat Prod, 1999)
